Where “and” joins values, the source holds several entries; their conditions need not be identical. Equal entries are not always repeated. Entries after “also recorded” stand apart in the source; their conditions may differ.
Assays:
tracheal rings = assay: Ex vivo tracheal ring contractility / relaxation (organ bath)
Description: Ex vivo assessment of airway function in transgenic and nontransgenic mice. Tracheal contractility was measured using ring preparations that were mounted on wires connected to pressure transducers and immersed in organ baths. The absolute contractile force evoked by acetylcholine is shown in (A). […] Rings were pre-contracted to the same extent with 10 μM acetylcholine for these studies. […] Curves shown represent the mean±SE of data generated from four different mice in each group.
Ex vivo Smooth Muscle Studies. […] Briefly, tracheas were excised and dissected free of surrounding tissues and cut into rings of approximately 5 mm in length. The trachea rings were mounted on stainless steel wires connected to isometric force transducers. […] Each tracheal ring was stretched to a tension of 5 mN, an optimal passive tension for maximizing active force (27). After a 20 min equilibration period, contraction/relaxation cycles with 10 μM acetylcholine were performed until consistent forces were observed. Cumulative concentration-isometric force curves were then generated to acetylcholine (1 nM-30 μM). After rinsing, tracheas were contracted with 10 μM acetylcholine (approximately the ED80) and cumulative concentration-relaxation curves were generated to isoproterenol (30 pM-10 μM). Concentration-response relations were fitted to a logistic equation (26).

[1] = tested on: airway responsiveness in conscious, unrestrained mice; assay: In vivo airway responsiveness to methacholine by whole body plethysmography (Penh); parameters: species or system mouse; conditions: for maximal Penh to methacholine after albuterol pretreatment: aerosolized albuterol 0.1 mg/ml for 20 min; for maximal Penh (bronchoconstriction induced by methacholine): no pretreatment
Description: FIG. 9. In vivo measurement of airway hyperreactivity in conscious, unrestrained mice. Airway responsiveness to methacholine was assessed using a rodent whole body plethysmography system to measure Penh (see EXPERIMENTAL PROCEDURES). The mice were first treated with aerosolized PBS to establish baseline function, which was then followed by increasing doses of aerosolized methacholine. On a separate day, the same mice were first pretreated with aerosolized albuterol (0.1 mg/ml) for 20 min. Penh values are reported as percent of the PBS (baseline) value. Bronchoconstriction was greatest in the untreated, NTG control mice (n=12) with a maximal increase in Penh of 558±42%. Pretreatment with albuterol lowered the maximal increase in Penh to 373±33% (p<0.02). The maximum Penh achieved in the transgenic mice (250±26%, n=9) was less than that of both the untreated (p<0.001) and the pretreated NTG mice (p<0.02).
In Vivo Airway Physiology. Airway responsiveness to methacholine was measured noninvasively in conscious, unrestrained mice using a whole body plethysmograph (Buxco Electronics, Troy N.Y.) (28). Using this system, the volume changes that occur during a normal respiratory cycle are recorded as the pressure difference between the animal-containing chamber and a reference chamber. The resulting signal is used to calculate respiratory frequency, minute volume, tidal volume, and enhanced pause (Penh). Penh is a unitless value that is a function of the peak inspiratory (PIP) and peak expiratory (PEP) pressures and the timing of expiration and is calculated as: […]
where Pause is the ratio of time spent in the last third of expiration relative to early expiration. […] Mice were placed in the chamber and allowed to adjust to their surroundings for 10 min. They were then exposed to aerosolized PBS (to establish baseline), followed by increasing concentrations of methacholine (2.5 to 80 mg/ml). Aerosolization was for 3 min and respiratory measurements were recorded and averaged for the subsequent 5 min after each dose. The degree of bronchoconstriction was expressed as the percent change in Penh relative to the PBS baseline. On a separate day, the mice were submitted to the same protocol except that they were first treated with aerosolized albuterol (0.1 mg/ml) for 20 min. The concentration-response data for each individual mouse were fit to a sigmoid curve by an iterative least squares technique, and the dose of methacholine required to double baseline Penh (ED200) was derived.

β2AR [2] = conditions: membranes from nontransgenic cells, absence of GTP
Description: Radioligand Binding and cAMP Studies. To prepare membranes from lung tissue, lungs from an individual mouse were homogenized with a Polytron (Brinkman) in 10 ml of hypotonic lysis buffer (5 mM Tris, pH 7.4, 2 mM EDTA) containing the protease inhibitors leupeptin, aprotinin, benzamidine and soybean trypsin inhibitor (10 μg/ml each). Detached smooth muscle cells from primary cultures were processed similarly. Homogenates were centrifuged at 40,000×g for 10 min at 4° C. […] Competition data were fit to a two-site model when this fit was statistically (p<0.05) better than a one-site fit by F-test, using Prizm software (GraphPad, San Diego Calif.). Receptor density on the cell surface was assessed using methods previously described (24). […] After trypsin activity was neutralized by the addition of FCS, the cells were washed with PBS and resuspended in DMEM. […] Bound radioactivity was separated by filtration and washing over GF/C glass fiber filters. Cyclic AMP content of attached mouse smooth muscle cells in culture exposed to 10 µM isoproterenol or carrier for 10 min was measured by an acetylated radioimmunoassay method as described (19). Adenylyl cyclase activity was measured in membranes prepared as above using column chromatography as previously described (25).

adenylyl cyclase = assay: Adenylyl cyclase activity in tracheal smooth muscle cell membranes; assay type: biochemical, mouse; conditions: for maximal isoproterenol stimulated adenylyl cyclase activity: 10 μM isoproterenol, n=4
Description: (§1) FIG. 7. cAMP production and adenylyl cyclase activity in isolated tracheal smooth muscle cells. […] Results are from four independent experiments. (B) Adenylyl cyclase activity was measured in membranes prepared from tracheal smooth muscle cells of transgenic and nontransgenic mice. Reactions were carried out in the presence of the indicated concentrations of isoproterenol for 10 min at 37° C. Detection of [^32P]cAMP produced was determined by column chromatography. Shown is a representative dose response curve.
Radioligand Binding and cAMP Studies. To prepare membranes from lung tissue, lungs from an individual mouse were homogenized with a Polytron (Brinkman) in 10 ml of hypotonic lysis buffer (5 mM Tris, pH 7.4, 2 mM EDTA) containing the protease inhibitors leupeptin, aprotinin, benzamidine and soybean trypsin inhibitor (10 μg/ml each). Detached smooth muscle cells from primary cultures were processed similarly. Homogenates were centrifuged at 40,000×g for 10 min at 4° C. […] Competition data were fit to a two-site model when this fit was statistically (p<0.05) better than a one-site fit by F-test, using Prizm software (GraphPad, San Diego Calif.). Receptor density on the cell surface was assessed using methods previously described (24). […] After trypsin activity was neutralized by the addition of FCS, the cells were washed with PBS and resuspended in DMEM. […] Binding to receptors localized throughout the cell was defined as that displaced by propranolol, while cell surface binding was defined as that displaced by CGP12177 (24). Bound radioactivity was separated by filtration and washing over GF/C glass fiber filters. Cyclic AMP content of attached mouse smooth muscle cells in culture exposed to 10 µM isoproterenol or carrier for 10 min was measured by an acetylated radioimmunoassay method as described (19). Adenylyl cyclase activity was measured in membranes prepared as above using column chromatography as previously described (25).

β2AR [3] = target: β2AR (Mus musculus, UniProt P18762)
Description: as §1
Radioligand Binding and cAMP Studies. To prepare membranes from lung tissue, lungs from an individual mouse were homogenized with a Polytron (Brinkman) in 10 ml of hypotonic lysis buffer (5 mM Tris, pH 7.4, 2 mM EDTA) containing the protease inhibitors leupeptin, aprotinin, benzamidine and soybean trypsin inhibitor (10 μg/ml each). […] Receptor density on the cell surface was assessed using methods previously described (24). […] Bound radioactivity was separated by filtration and washing over GF/C glass fiber filters. Cyclic AMP content of attached mouse smooth muscle cells in culture exposed to 10 µM isoproterenol or carrier for 10 min was measured by an acetylated radioimmunoassay method as described (19). Adenylyl cyclase activity was measured in membranes prepared as above using column chromatography as previously described (25).

[4] = target: stimulatory guanine nucleotide binding protein (Gs) (mouse) (UniProt P63094); assay: cell-based or functional assay
Chain of stimulatory guanine nucleotide binding protein (Gs) (mouse) (P63094 2-394): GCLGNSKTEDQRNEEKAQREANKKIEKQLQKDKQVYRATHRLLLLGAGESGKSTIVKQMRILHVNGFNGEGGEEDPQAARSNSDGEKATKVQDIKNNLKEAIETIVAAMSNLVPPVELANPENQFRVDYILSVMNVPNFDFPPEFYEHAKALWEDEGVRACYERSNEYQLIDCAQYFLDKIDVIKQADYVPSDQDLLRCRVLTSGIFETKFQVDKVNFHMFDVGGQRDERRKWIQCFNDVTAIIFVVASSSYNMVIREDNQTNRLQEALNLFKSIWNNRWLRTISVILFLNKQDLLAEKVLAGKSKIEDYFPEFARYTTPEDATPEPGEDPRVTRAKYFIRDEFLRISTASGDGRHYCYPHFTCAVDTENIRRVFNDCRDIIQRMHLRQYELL

Chain of β2AR (Mus musculus, UniProt P18762) (P18762 whole entry): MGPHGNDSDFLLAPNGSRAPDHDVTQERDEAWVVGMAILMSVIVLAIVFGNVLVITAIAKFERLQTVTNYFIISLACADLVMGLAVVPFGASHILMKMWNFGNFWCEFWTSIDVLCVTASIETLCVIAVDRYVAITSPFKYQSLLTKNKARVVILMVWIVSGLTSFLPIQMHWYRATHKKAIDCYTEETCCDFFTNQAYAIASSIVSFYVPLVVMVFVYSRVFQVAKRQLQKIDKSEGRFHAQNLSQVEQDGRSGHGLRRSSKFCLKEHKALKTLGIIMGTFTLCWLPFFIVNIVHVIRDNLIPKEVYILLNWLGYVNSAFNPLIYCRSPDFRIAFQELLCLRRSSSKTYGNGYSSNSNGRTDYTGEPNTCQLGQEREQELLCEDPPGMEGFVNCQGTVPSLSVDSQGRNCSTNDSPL

Cc1ccc(OCC(O)C(C)NC(C)C)c2c1CCC2 (stereo not drawn) [ICI 118,551]
effect on enhanced isoproterenol-induced relaxation in SMP8-β2AR mice (tracheal rings; pretreatment 0.1 μM): blocked; also recorded: abolished

CC(C)(C)NCC(O)c1ccc(O)c(CO)c1 (stereo not drawn) [albuterol]
methacholine-induced increase in Penh after albuterol pretreatment ([1]; SMP8-β2AR mice, methacholine up to 80 mg/ml): no increase in Penh; also recorded: no methacholine-induced bronchoconstriction was observed | maximal Penh to methacholine after albuterol pretreatment ([1]; SMP8-β2AR transgenic mice): 146±12 % of baseline and 138±11 % of baseline | maximal Penh to methacholine after albuterol pretreatment ([1]; nontransgenic mice): 373±33 % of baseline

CC(C)NCC(O)c1ccc(O)c(O)c1 (stereo not drawn) [isoproterenol]
proportion of receptors in the high affinity state (% RH) (β2AR [2]): 36±6.7% | percent isoproterenol stimulation of adenylyl cyclase over basal (adenylyl cyclase; nontransgenic membranes): ~46% | maximal isoproterenol stimulated adenylyl cyclase activity (adenylyl cyclase; nontransgenic membranes): 251 ± 7.3 pmol/min/mg | percent isoproterenol stimulation of adenylyl cyclase over basal (adenylyl cyclase; transgenic membranes): ~125% | maximal isoproterenol stimulated adenylyl cyclase activity (adenylyl cyclase; transgenic membranes): 609 ± 74.7 pmol/min/mg | maximal extent of relaxation, transgenic vs nontransgenic rings (tracheal rings; isoproterenol, rings pre-constricted with 10 μM acetylcholine): equivalent | maximal Penh to methacholine after acute albuterol in mice pretreated with isoproterenol ([1]; SMP8-β2AR transgenic mice, isoproterenol by osmotic minipump for three continuous days): 128±1 % of baseline | isoproterenol-stimulated cAMP content (β2AR [3]; nontransgenic airway smooth muscle cells, 10 min, n=5): 2.05 ± 0.10 pmol/mL | isoproterenol-stimulated cAMP, percent-stimulation over basal (β2AR [3]; nontransgenic cells): ~50%

CC(=O)OC(C)C[N+](C)(C)C (stereo not drawn) [methacholine]
maximal Penh (bronchoconstriction induced by methacholine) ([1]; SMP8-β2AR transgenic mice, n=9): 250±26 % of baseline | ED200 (dose of methacholine required to double baseline Penh) ([1]; SMP-β2AR mice): 35.7 ± 10.6 mg/mL | ED200 (dose of methacholine required to double baseline Penh) ([1]; nontransgenic mice): 12.1 ± 1.90 mg/mL | maximal Penh (bronchoconstriction induced by methacholine) ([1]; nontransgenic mice, n=12): 558±42 % of baseline

endogenous β-adrenergic receptor of tracheal smooth muscle cells from nontransgenic mice (from UniProt P18762 1-418)
proportion of receptors in the high affinity state (% RH), isoproterenol competition of [125I]CYP binding in the absence of GTP [4]: 36%

Reference: patent publication US20040192625A1, “Adrenergic receptor overexpression in airway tissues for the treatment of airway obstructive diseases” (priority 2000, published 2004)
